According to patent publication EP4722219A1 (Gan & Lee Pharmaceuticals Co., Ltd., priority 2023, dated 2024):

Assays:
AR protein = biological target: T1, AR protein (Homo sapiens, UniProt P10275, T878A); assay: AR protein degradation in LNCaP cells (Western blot); format: cell-based; details: 8 hours; for Degradation of AR protein in LNCaP cells, 10 nM (%) / percent AR protein degradation at a fixed concentration at 0.01 µM: 10 nM; for Degradation of AR protein in LNCaP cells, 100 nM (%) / percent AR protein degradation at a fixed concentration at 0.1 µM: 100 nM
T1 construct: host or cells: LNCaP FGC
T1 sequence (P10275 1-920 T878A): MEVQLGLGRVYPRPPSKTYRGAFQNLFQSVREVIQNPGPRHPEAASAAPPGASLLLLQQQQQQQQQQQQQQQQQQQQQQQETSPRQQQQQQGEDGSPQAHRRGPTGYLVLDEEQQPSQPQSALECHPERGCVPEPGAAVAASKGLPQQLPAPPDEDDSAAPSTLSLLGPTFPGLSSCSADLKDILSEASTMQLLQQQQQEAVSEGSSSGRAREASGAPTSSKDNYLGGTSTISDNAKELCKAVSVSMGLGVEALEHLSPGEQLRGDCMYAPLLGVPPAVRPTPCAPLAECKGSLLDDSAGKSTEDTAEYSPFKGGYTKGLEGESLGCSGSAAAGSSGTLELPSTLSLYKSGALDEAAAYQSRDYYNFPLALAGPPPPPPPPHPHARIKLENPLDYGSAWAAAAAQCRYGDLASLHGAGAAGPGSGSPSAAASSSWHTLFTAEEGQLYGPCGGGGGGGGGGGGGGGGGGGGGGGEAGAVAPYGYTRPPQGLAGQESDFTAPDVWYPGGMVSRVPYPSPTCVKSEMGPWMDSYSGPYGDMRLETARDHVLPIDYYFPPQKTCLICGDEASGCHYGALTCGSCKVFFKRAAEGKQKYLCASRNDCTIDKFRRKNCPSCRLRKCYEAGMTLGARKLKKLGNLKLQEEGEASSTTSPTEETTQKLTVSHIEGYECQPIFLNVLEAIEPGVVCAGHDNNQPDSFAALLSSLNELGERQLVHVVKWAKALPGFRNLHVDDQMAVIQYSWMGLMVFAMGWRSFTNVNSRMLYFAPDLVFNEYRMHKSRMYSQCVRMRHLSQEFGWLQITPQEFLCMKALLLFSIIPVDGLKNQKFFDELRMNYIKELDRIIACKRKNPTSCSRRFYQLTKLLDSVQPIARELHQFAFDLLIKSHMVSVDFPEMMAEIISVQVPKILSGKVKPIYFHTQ
Outline: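 LNCaP cells exposed to compound or solvent control for 8 h, lysed in RIPA, protein normalized by BCA. AR detected by SDS-PAGE/Western blot with infrared imaging; band grayscale normalized to GAPDH to calculate AR degradation rate.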

VCaP cells = assay: Inhibition of VCaP cell proliferation (WST-8); format: cell-based; details: Homo sapiens, 168 hours
Outline: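 VCaP cells seeded at 15,000/well in DMEM + 10% FBS, treated next day with nine 5-fold dilutions from 10 µM (final) at 37°C, 5% CO2. Viability read by WST-8 absorbance at 450 nm on day 9.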

SMILES | Degradation of AR protein in LNCaP cells, 10 nM (%) (AR protein) | Degradation of AR protein in LNCaP cells, 100 nM (%) (AR protein) | IC50 (VCaP cells) [nM] | percent AR protein degradation at a fixed concentration at 0.01 µM (AR protein) [%] | percent AR protein degradation at a fixed concentration at 0.1 µM (AR protein) [%]
COc1cc(O[C@H]2C(C)(C)[C@H](NC(=O)c3ccc(N4CCC(F)(CN5CCC6(CC5)COc5c6ccc(C(=O)N[C@H]6CCC(=O)NC6=O)c5F)CC4)cc3)C2(C)C)ccc1C#N [A-P-84] | -6 | 33 | 490 |  | 
COc1cc(O[C@H]2CC[C@H](NC(=O)c3ccc(N4CCC(CN5CCC6(CC5)COc5cc7c(cc56)n(C)c(=O)n7C5CCC(=O)NC5=O)CC4)nn3)CC2)ccc1C#N (relative stereo) [A-P-17] | 1 | -18 | 72 |  | 
Cn1c(=O)n(C2CCC(=O)NC2=O)c2ccc3c(c21)OCC31CCN(CC2CCN(c3ccc(C(=O)N[C@H]4CC[C@H](Oc5ccc(C#N)c(Cl)c5)CC4)nn3)CC2)CC1 (stereo partly drawn) [A-P-24] |  |  | 0.0081 | 49 | 29
COc1cc(O[C@H]2CC[C@H](NC(=O)c3ccc(N4CCC(N5CCC6(CC5)COc5cc7c(cc56)n(C)c(=O)n7C5CCC(=O)NC5=O)CC4)nn3)CC2)ccc1C#N (stereo partly drawn) [A-P-18, N-((1r,4r)-4-(4-cyano-3-methoxyphenoxy)cyclohexyl)-6-(4-(3-(2,6-dioxopyridyl-3-yl)-1-methyl-2-oxo-2,3-dihydro-1H,6H-spiro[benzofuro[5,6-d]imidazole-7,4'-piperidin]-1'-yl)piperidin-1-yl)pyridazine-3-carboxamide] |  |  | < 0.0051 | 43 | 11
COc1cc(O[C@H]2C(C)(C)[C@H](NC(=O)c3ccc(N4CCC(F)(CN5CCC6(CC5)COc5cc7c(cc56)n(C)c(=O)n7C5CCC(=O)NC5=O)CC4)cc3)C2(C)C)ccc1C#N (stereo partly drawn) [A-P-13] |  |  | 4.3 | 32 | 35
